In patent US20240390383A1, “DIOXAZINES AND THEIR USE IN TREATMENT OF GBA-RELATED DISEASES” (ZEVRA DENMARK A/S, priority 2021, published 2024):

Target: T1, GCase (GBA) in human fibroblast cell line GM10915 harboring the L444P GBA mutation (Homo sapiens, UniProt P04062, L483P)
T1 construct: Human fibroblast cell line GM10915 harboring the L444P GBA mutation; host or cells: GM10915 human fibroblasts
T1 sequence (P04062 40-536 L483P): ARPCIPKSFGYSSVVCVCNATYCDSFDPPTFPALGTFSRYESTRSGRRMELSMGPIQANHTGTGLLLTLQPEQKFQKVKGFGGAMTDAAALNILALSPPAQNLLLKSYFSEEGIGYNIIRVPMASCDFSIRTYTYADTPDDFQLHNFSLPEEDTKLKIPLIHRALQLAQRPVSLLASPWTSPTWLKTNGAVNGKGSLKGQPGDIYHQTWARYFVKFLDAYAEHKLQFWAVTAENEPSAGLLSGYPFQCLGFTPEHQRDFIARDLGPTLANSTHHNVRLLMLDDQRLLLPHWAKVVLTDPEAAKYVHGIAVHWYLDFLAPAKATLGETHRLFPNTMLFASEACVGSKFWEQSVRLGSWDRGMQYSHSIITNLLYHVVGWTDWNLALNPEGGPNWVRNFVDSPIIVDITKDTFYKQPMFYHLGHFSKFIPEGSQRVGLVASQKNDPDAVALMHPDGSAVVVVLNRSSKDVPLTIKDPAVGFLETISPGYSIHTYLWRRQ
Assay: GCase activity assay (4-MUG substrate, normalised to crystal violet staining) in L444P GBA fibroblasts
Format: cell-based
Conditions: 5 days exposure; for GBA EC1.5: concentration giving 150% GCase activity (1.5-fold induction), 8-point dose range
Method in brief: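 Patient fibroblasts GM10915 (L444P GBA) exposed to compounds for five days over an 8-point range, with fresh dosing every 2–3 days. Intact-cell GCase measured with 2.5 mM 4-MUG at pH 4.0 for 23 h at 37 °C (ex/em 365/445 nm), normalised to crystal violet, as % of PBS basal; Emax is the maximum reached.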

[1] = maximum percent GCase activity relative to untreated cells in the dose range tested

SMILES	GBA EC1.5	Emax [1]	GBA Emax [1]
NCC(=O)N1CCCC(C2=NOCC(CN3CCCCC3)O2)C1 (racemic) [compound 725, rac-2-amino-1-(3-(5-(piperidin-1-ylmethyl)-5,6-dihydro-1,4,2-dioxazin-3-yl)piperidin-1-yl)ethan-1-one]	36 µM	168%	–
COC1CNCC(C2=NOCC(CN3CCCCC3)O2)C1 (racemic) [compound 680, rac-3-(5-methoxypiperidin-3-yl)-5-(piperidin-1-ylmethyl)-5,6-dihydro-1,4,2-dioxazine]	20 µM	209%	–
CN1CC(C2=NOCC(CN3CCCCC3)N2)CC1=O (centres unmarked) [compound 601]	50 µM	111%	–
C[C@@]12CNC[C@]1(C1=NOCC(CN3CCCCC3)O1)C2 (relative stereo) [compound 481, rac-rel-trans-3-((1R,5R)-5-methyl-3-azabicyclo[3.1.0]hexan-1-yl)-5-(piperidin-1-ylmethyl)-5,6-dihydro-1,4,2-dioxazine]	22 µM	174%	–
CC(=O)N1CCCC1C1=NOCC(CN2CCCCC2)O1 (centres unmarked) [compound 692]	50 µM	107%	–
CCCCCO[C@H]1CC[C@H](NC(=O)c2cnn3c(C)cc(C)nc23)CC1 [LTI-291, reference compound]	112 µM	–	–
C1CCN(CC2CON=C([C@]34CCC[C@H]3NCC4)O2)CC1 (some centres unmarked) [compound 558]	4 µM	225%	–
CN(C)C(=O)CN1CCCC(C2=NOCC(CN3CCCCC3)O2)C1 (racemic) [compound 710, rac-N,N-dimethyl-2-(3-(5-(piperidin-1-ylmethyl)-5,6-dihydro-1,4,2-dioxazin-3-yl)piperidin-1-yl)acetamide]	28 µM	234%	–
COCCC1(C2=NOCC(CN3CCCCC3)O2)CCN(C)C1 (racemic) [compound 701, rac-3-(3-(2-methoxyethyl)-1-methylpyrrolidin-3-yl)-5-(piperidin-1-ylmethyl)-5,6-dihydro-1,4,2-dioxazine]	21 µM	225%	–
C1CCN(CC2CON=C([C@]34CCC[C@H]3NCC4)O2)CC1 (relative stereo) [compound 469, rac-3-rel-trans-((3aS,6aR)-hexahydrocyclopenta[b]pyrrol-3a(1H)-yl)-5-(piperidin-1-ylmethyl)-5,6-dihydro-1,4,2-dioxazine]	5 µM	–	204%
CNC(=O)CN1CCCC(C2=NOCC(CN3CCCCC3)O2)C1 (racemic) [compound 721, rac-N-methyl-2-(3-(5-(piperidin-1-ylmethyl)-5,6-dihydro-1,4,2-dioxazin-3-yl)piperidin-1-yl)acetamide]	33 µM	175%	–
c1cnc(N2CCC(C3=NOCC(CN4CCCCC4)O3)C2)nc1 (centres unmarked) [compound 693]	50 µM	112%	–
N[C@@H]1CN[C@H](C2=NOCC(CN3CCCCC3)O2)C1 (some centres unmarked) [compound 596]	50 µM	105%	–
c1cn2c(n1)CC(C1=NOCC(CN3CCCCC3)O1)CC2 (racemic) [compound 660, rac-5-(piperidin-1-ylmethyl)-3-(5,6,7,8-tetrahydroimidazo[1,2-a]pyridin-7-yl)-5,6-dihydro-1,4,2-dioxazine]	9 µM	212%	–
CN(C)CCCC1=NOCC(CN2CCCCC2)O1 (racemic) [compound 768, rac-N,N-dimethyl-3-(5-(piperidin-1-ylmethyl)-5,6-dihydro-1,4,2-dioxazin-3-yl)propan-1-amine]	6 µM	238%	–
